Assay results from US20120076811A1 (priority 2009, published 2012).
Entries after “also recorded” stand apart in the source; their conditions may differ.

Assays:
[1] = tested on: lymphoid cells from type II collagen immunized DR1 transgenic mice; assay type: cell-based, mouse
[2] = biological target: HA259-274 specific CD4+ T cells from DR1 transgenic mice immunized with H5N1-rHA1 protein/CFA (T cel)
[3] = biological target: HA259-274 specific CD4+ T cells from DR1 transgenic mice immunized with H5N1-rHA1 protein/CFA (T cel); remark: listed apart in the source
[4] = biological target: CD4+ CD44+ cells from CFA only immunized DR1 transgenic mice (T cell receptors on cells)
[5] = tested on: lymphoid cells from rHA1 immunized DR1 transgenic mice; assay type: cell-based, mouse
[6] = tested on: lymphoid cells from H5N1-rHA1 immunized DR1 transgenic mice; assay type: cell-based, mouse
[7] = tested on: lymphoid cells from H5N1-rHA1 immunized DR1 transgenic mice; assay type: cell-based, mouse; remark: listed apart in the source
[8] = tested on: lymphoid cells from H5N1-rHA1 immunized DR1 transgenic mice; assay type: cell-based, mouse; remark: listed apart in the source

AGFKGEQGPKGEPGP [CII280-294]
proliferative response ([3H]thymidine incorporation) [1]: Strong dose dependent responses

HA259-274/DR1 tetramers (from UniProt P01903 26-216) (peptide-MHC)
fold increased staining against control CLIP/DR1 tetramers [2]: 30 fold | tetramer positive population [2]: 3% | tetramer positive population (% of the CD4+ CD44+ cells) [3]: 0.1 | tetramer positive cells [4]: 0.01%

INSSLPYQNIHPVTIGECPKY [HA298-317]
proliferative response ([3H]thymidine incorporation) [5]: significantly lower; also recorded: no response

KMRMATPLLMQALPM [CLIP89-105]
IFN-γ production in culture supernatant [6]: not | proliferation response ([3H]thymidine incorporation) [7]: not

PKYVKQNTLKLAT [HA306-318]
proliferative response ([3H]thymidine incorporation) [5]: Strong dose dependent responses

SNGNFIAPEYAYKIVK [HA259-274]
IFN-γ production in culture supernatant [6]: positive cytokine production | proliferation response ([3H]thymidine incorporation) [7]: Strong dose dependent proliferation responses | IL-2 production in culture supernatant [8]: positive cytokine production
